Data published in patent US20240336661A1, “PEPTIDES DERIVED FROM RUMINOCOCCUS TORQUES” (University of Copenhagen, priority 2021, published 2024).

Legend:
murine C2C12 myoblasts = experiment: Myotube formation and myogenesis gene expression in C2C12 myoblasts; type: cell-based, mouse
Description: FIG. 12. […] The C2C12 myotubes were treated with indicated doses of RUCILP2 overnight and myotube images were collected at magnification, ×10.
FIG. 28. […] White preadipocytes from human visceral fat (C-12732, PromoCell) were cultured until 80% confluent and switched into differentiation media (with 0.3 ml/ml of fetal calf serum (FCS), 8 ug/ml of d-biotin, 0.5ug/ml of insulin, 400 ng/ml of dexamethasone) in the presence of 15 nM of 21-AABP2. The differentiation process to mature adipocytes was completed after 14 days. Cells were harvested after 14 days of differentiation and the indicated genes were quantified by q-PCR. Inguinal fat tissues from 6-week-old wild-type C57BL/6J female mice were dissected and washed with PBS, minced and digested for 1 hour at 37° C. in PBS containing 10 mM CaCl2, 2.4 U/ml dispase II (Roche) and 10 mg/ml collagenase D (Roche). After adding warm DMEM/F12 (1:1) with 10% FCS, digested tissue was filtered through a […] cell strainer and centrifuged at 600×g for 10 minutes. Pellet was resuspended by 40 ml DMEM/F12 (1:1) with 10% FCS and filtered through a […] cell strainer followed by centrifugation at 600×g for 10 minutes. Pelleted inguinal stromal vascular cells were grown to confluence and split onto 12-well plates. The cells were induced to differentiate by treatment with […], 0.5 mM isobutyl methyl xanthine for 2 days. After that, cells were maintained in […] for 4 days with medium change every other day. The cells were treated with 15 nM of 21-AABP2 every other day during 6 days of differentiation. Cells were harvested after 6 days of differentiation and thermogenesis gene were quantified by q-PCR. C2C12 myoblasts (CRL-1772, ATCC) were cultured until 80% confluent and switched into differentiation media (with 2% horse serum). The treatment with 21-AABP2 started from the second day of differentiation. Cells were harvested after 4 days of differentiation and expression of myogenesis genes were quantified by q-PCR. Data are presented as mean+/−SEM of one representative experiment done in biological triplicates. Statistical significance was determined by unpaired two-tailed Student's t test, *, p<0.05
FIG. 29. […] Representative images of myoblasts (CRL-1772, ATCC) at 24h of differentiation in the presence of phosphate buffered saline (PBS, blank) or 21-AABP2 (15 nM). Presented images were from one representative experiment done in biological triplicates.
C2C12 cells were seeded on 12-well plates under DMEM/F-12 medium (Dulbecco's Modified Eagle Medium/Nutrient Mixture F-12, Fisher Scientific, #11524436), supplemented with 10% FBS (Fetal Bovine Serum, Fisher Scientific, #11550356) and 1% Penicillin-Streptomycin (Fisher Scientific, #11548876). Cell cultures were maintained in a humidified chamber with 5% CO2 at 37° C., and culture media were changed every 2-3 days.
At approximately 80% confluence, 10% fetal bovine serum was replaced with 2% horse serum to induce C2C12 myoblast cells to differentiate into myotubes. Twenty-four hours later (day 1 of the differentiation), the cells were treated with recombinant RUCILP2 or commercial recombinant irisin (Sigma, #SRP8039-10UG and Phoenix pharmaceuticals, #067-29A) or saline. For integrin inhibitor treatment, cells were treated with 10 μM of CycloRGDyK (Selleckchem, #S7844) for 10 minutes and washed with PBS before treated with recombinant RUCILP2 or commercial recombinant irisin or saline. At day three, the cells were refreshed with the same media as day one. After treatments for six hours on day 3, C2C12 cells were harvested for qRT-PCR analysis.
C2C12 myoblasts were cultured until 80% confluent and switched into differentiation media (with 2% horse serum). The treatment with 21-AABP2 started from the second day of differentiation. Representative images of the formed myotubes at 24h of differentiation in the presence of PBS (blank) or 21-AABP2 (15 nM) were captured. […]

[1] = system: murine inguinal white adipocytes; experiment: Thermogenesis gene expression in murine inguinal adipocytes (q-PCR); type: cell-based, mouse; details: mouse inguinal preadipocytes, 15 nM every other day, 6 days
Description: (§1) FIG. 9. Exposure of recombinant RUCILP2 to human visceral white pre-adipocytes or murine inguinal white adipocytes causes up-regulation of the expression of genes involved in thermogenesis/browning. Upper panel: mRNA expression level of adipocyte differentiation marker genes including Ucp1, Pparγ1, Dio2, and Cox2 and brown adipocyte-selective genes including Cpt1b and Ebf2 on human white preadipocytes (HWP). Human white preadipocytes were cultured until 80% confluent and switched into differentiation media (with 0.3 ml/ml fetal calf serum, 8 ug/ml d-biotin, 0.5 ug/ml insulin, 400 ng/ml dexamethasone). The differentiation process to mature adipocytes was completed after 12-14 days. The treatment of RUCILP2 started from the third day of differentiation. Cells were harvested after 14 days of differentiation and the gene expressions were quantified by q-PCR. […] Statistical significance was determined by unpaired two-tailed Student's t test. *, p<0.05 vs 0 nM RUCILP2.
(§2) FIG. 28. […] Cells were harvested after 14 days of differentiation and the indicated genes were quantified by q-PCR. […] Cells were harvested after 6 days of differentiation and thermogenesis gene were quantified by q-PCR. […] Cells were harvested after 4 days of differentiation and expression of myogenesis genes were quantified by q-PCR. […] Statistical significance was determined by unpaired two-tailed Student's t test, *, p<0.05 […]

[2] = system: rat insulinoma INS-1 cells; experiment: Insulin release from INS-1 cells (ELISA); type: cell-based; details: 15 nM, 12 hours
Description: FIG. 30. Insulin release from the immortalized rat insulinoma INS-1 cells is increased following 21-AABP2 stimulation. INS-1 cells (832/13, ThermoFisher) were grown in RPM 1640 medium until a confluency of 70% was achieved and switched to RPM 1640 medium supplied with 15 nM of 21-AABP2 and incubated for 12 hours. The insulin concentration in the supernatant of cell culture medium was measured by MSD rat/mouse insulin ELISA kit. Data are presented as mean+/−SEM of one representative experiment done in biological triplicate. Statistical significance was determined by unpaired two-tailed Student's t test, *, p<0.05.
INS-1 cells were grown in RPMI 1640 medium (11875093, ThermoFisher Scientific) until a confluency of 70% was achieved and switched to RPMI 1640 medium supplied with 15 nM of 21-AABP2 and incubated for 12 hours. The insulin concentration in supernatant of cell culture medium was measured by MSD rat/mouse insulin ELISA kit (Merck Millipore).

[3] = system: human visceral white pre-adipocytes; experiment: Thermogenesis/browning gene expression in human visceral white pre-adipocytes (q-PCR); type: cell-based; details: 15 nM, 14 days of differentiation
Description: as §1, §2

21-AABP2: 21 amino acid trypsin cleaved fragment of RUCILP2, made recombinantly in E. coli (AETTYFVEVTAVDAAGNESVK; Ruminococcus torques)
myotube development (murine C2C12 myoblasts; C2C12, 15 nM, 24h of differentiation): increases myotube development
expression of genes involved in myogenesis (Mymk, Caveolin-3) (murine C2C12 myoblasts; C2C12, harvested after 4 days of differentiation): stimulates expression
expression of key genes regulating thermogenesis [1]: induces expression
insulin release [2]: increased
expression of genes involved in thermogenesis/browning [3]: promotes expression
